Series [1] is described as follows: Toxicity in AB zebra fish larvae assessed as mortality at >= 6.2 uM after 6 hrs relative to control. More on the design: species or system Danio rerio. The following applies: zebrafish.
A short description of series [2]: Toxicity in AB zebra fish larvae assessed as maximum tolerated concentration after 6 hrs. More on the design: species or system Danio rerio. The following applies: zebrafish, read-out: MTC.
The nature of series [3]: Ratio of MTC for toxicity in AB zebra fish larvae to lowest observed effect concentration for Anticonvulsant activity in AB zebra fish larvae assessed as reduction in PTZ-induced convulsant behavior. More on the design: species or system Danio rerio.
Series [4] can be described thus: Neurotoxicity in AB zebra fish larvae assessed as decrease in total swimming distance at <= MTC after 6 hrs. The following applies: zebrafish. It is filed as toxicity, Danio rerio.
Series [5] is filed under the species Danio rerio. Description: Anticonvulsant activity in AB zebra fish larvae assessed as reduction in PTZ-induced convulsant behavior by measuring lowest observed effect concentration pretreated for 6 hrs followed by PTZ-stimulation and measured every 5 mins for 1 hr. It is filed as functional. The following applies: time 7 hrs.
For series [6], the species on record is Danio rerio. As to the kind of experiment: Anticonvulsant activity in AB zebra fish larvae assessed as reduction in PTZ-induced convulsant behavior by measuring swimming distance at 0.7 uM pretreated for 6 hrs followed by PTZ-stimulation and measured every 5 mins for 1 hr. The class given is functional, organism-based. The following applies: time 7.0 hrs.

The nature of series [7]: Neurotoxicity in AB zebra fish larvae at 1.5 uM after 6 hrs. It is filed as toxicity, Danio rerio. The following applies: zebrafish.

Molecules are shown by their SMILES. Calls of active or inactive are those of the source. No cut-off for these calls is given here.

In the case of `CC(C)=CCC12CC(C(C)(C)O)OC1=C(O)C(=O)c1oc3c4c(cc(O)c3c(=O)c12)OC(C)(C)C=C4` (configuration not stated), the mortality (in general, the share of the test organisms that died) at 6 h in series [1] came to 100%. Besides, the MNTC at 6 h in series [2] was found to be 700 nM. For the same compound, the Ratio in series [3] is on record as 1. Moreover, the Activity result was “Non-Toxic” in series [4], 0.7 µM in the series listed under Danio rerio [5] and “Toxic” in series [7]. In addition, in the series filed under Danio rerio [6], the outcome was Active.

(Values after ChEMBL document CHEMBL4715874, “In Vivo Screening of Xanthones from Garcinia oligantha Identified Oliganthin H as a Novel Natural Inhibitor of Convulsions” (J Nat Prod, 2020).)
